Experimental data reported in patent US20040253207A1, “Methods and compositions for prostate epithelial cell differentiation” (Barnes-Jewish Hospital, priority 2002, published 2004).
*: point of attachment. Decanoyl = CCCCCCCCCC(=O)*; CH2Cl = ClC*

Columns and labels:
Type in all cases: cell-based, human
[1] = test system: PDF processing in LNCaP cells; test: PC-dependent PDF processing in LNCaP cells, immunoblot for pro-PDF and mature PDF; details: various concentrations of CMK, 24 hours
Experimental: (§1) Cells (approximately 1×10^6 cells) were seeded in 100 mm cell culture dishes and cultured in RPMI 1640 supplemented with 10% fetal bovine serum at 5% CO2. Subconfluent cells were washed with phosphate buffered saline (PBS), lysed in lysis buffer (Cell Signaling Technology, Beverly, Mass.) and used for cell lysate. For the detection of PDF in conditioned media, subconfluent cells were serum-starved for 24 h. The serum free media were collected and precipitated with 10% trichloroacetic acid. After centrifugation, pellets were dissolved in the buffer which consisted of 8 M urea, 50 mM Tris (pH 8.0) and 0.1% NP-40. Samples were mixed in 5× Laemmli sample buffer with 2% beta-mercaptoethanol, subjected to electrophoresis on a 15% SDS-polyacrylamide gel, and transferred to PVDF membranes. Membranes were blocked with PBS containing 0.1% Tween 20 and 5% non-fat dry milk for 1 h at room temperature and incubated with the appropriate primary antibodies and antisera (1:500-2000) overnight at 4° C. After the membranes were washed three times with PBS containing 0.1% Tween 20, the membranes were incubated with appropriate horse-radish peroxidase-conjugate secondary antibodies (1:2000) for 1 h at 4° C. The protein bands were visualized by chemiluminescence using SuperSignal West Pico ECL kit (PIERCE, Rockford, Ill.). This protocol was used for the detection of PDF, cytokeratin and PSA.
PC-dependent PDF processing in LNCaP cells was also examined in the presence of CMK by immunoblotting for PDF. Cells were cultured and serum-starved with and without various concentrations of CMK for 24 hours. Cells and supernatants were electrophoresed on 15% SDS-PAGE. Immunoblots were performed with anti-pro-PDF antibody (˜40 kd pro-PDF form) and anti-PDF antisera (˜17 kd mature PDF form).

[2] = test system: PSA expression in LNCaP cells; test: DHT-stimulated PSA expression in LNCaP cells (anti-PSA immunoblot); details: various concentrations of CMK, 24 hours
Experimental: as §1, with “PSA. […]” for “PSA.”

[3] = test system: LNCaP cells; test: Prostate epithelial cell differentiation markers (cytokeratin immunoblot), LNCaP; details: various concentrations of CMK, 72 hours, serum-free RPMI 1640
Experimental: as §1, with “PSA. […]” for “PSA.”

[4] = test system: proprotein convertases (PCs) in LNCaP, PC3 and DU145 cells; test: Proprotein convertase activity assay (cleavage of fluorogenic substrate boc-RVRR-amc); details: 100 μM CMK for 24 hours
Experimental: For determination of cellular PC activity, 30,000 cells were seeded in 48-well plates for 24 hours. The next day, growth medium and CMK were added until a final concentration of 100 μM was reached. After a 24-hour incubation, media were replaced and cells were washed with PBS. Additional 48-well plates were prepared in the same manner for the determination of cell number which was used for normalization. 150 μl of assay medium which consists of RPMI 1640 with 0.25% Triton X-100 for permeabilization and boc-RVRR-amc (100 μM) as a fluorogenic substrate were added to each well. Fluorescence was measured at 360 nm excitation and 460 nm emission wavelengths after 4 h of substrate addition. The data were normalized to cell number. Human recombinant furin (Sigma, St. Louis, Mo.) was used for positive control.
PC activity in prostate cancer cells and inhibition of PC activity by CMK was next examined. LNCaP, PC3 and DU 145 cells were incubated in the presence or absence of 100 μM CMK for 24 hours. Thereafter, 100 μM fluorogenic substrate, boc-RVRR-amc, was added and cells were incubated for an additional four hours. PC activity was assayed by measuring the cleavage of the fluorogenic substrate.

decanoyl-Arg-Val-Lys-Arg-chloromethylketone (Decanoyl-RVKR-CH2Cl) [CMK]
cellular PDF ([1]; LNCaP cell lysate): did not affect
PDF processing (mature PDF) in LNCaP-conditioned media ([1]; serum-starved): reduction of PDF processing in LNCaP-conditioned media in a dose-dependent manner
pro-PDF in LNCaP-conditioned media ([1]; serum-starved): concomitant increase in pro-PDF
levels of endogenous PSA ([2]; in the absence of DHT): not affected
androgen-induced PSA expression ([2]; in the presence of DHT): inhibited
expression of cytokeratin 8, 18 and 19 [3]: down-regulated
expression of cytokeratin 14 [3]: upregulated in a dose-dependent manner
PC activity (cleavage of boc-RVRR-amc) [4]: inhibition of PCs
